One may read the pKi as the negative decadic logarithm of the Ki, by convention in mol/L. Higher therefore signals a small Ki.

pKi: −log10 of the molar value.

For the test, the target named is Carbonic anhydrase 9 (Homo sapiens, UniProt Q16790). Description: Inhibition of transmembrane human carbonic anhydrase 9 by stopped flow CO2 hydration assay.
For the molecule `NS(=O)(=O)c1ccc(-n2nnc(C(=O)O)c2-c2cccs2)cc1`, the pKi was 5.88.

For `CCOC(=O)c1nnn(-c2ccc(S(N)(=O)=O)cc2)c1-c1cccs1`, the pKi was 6.62.

Molecule `NS(=O)(=O)c1ccc(-n2nnc(CO)c2-c2ccccn2)cc1` had a pKi of 7.84.

`CCOC(=O)c1nnn(-c2ccc(S(N)(=O)=O)cc2)c1-c1ccccn1` gave a pKi of 5.85.

Consider `NNC(=O)c1nnn(-c2ccc(S(N)(=O)=O)cc2)c1-c1ccc(Br)cc1`, for which the negative-log Ki (pKi) is 5.87.

In the case of `NC(=O)c1nnn(-c2ccc(S(N)(=O)=O)cc2)c1-c1cccs1`, the pKi is 6.65.

`Cc1ccc(-c2c(C(=O)O)nnn2-c2ccc(S(N)(=O)=O)cc2)cc1` showed a pKi of 5.85.

Molecule `Cc1ccc(-c2c(C(=O)NN)nnn2-c2ccc(S(N)(=O)=O)cc2)cc1` gave a pKi of 6.13.

Take `NC(=O)c1nnn(-c2ccc(S(N)(=O)=O)cc2)c1-c1ccc(Br)cc1`: the pKi was 6.59.

Take `NS(=O)(=O)c1ccc(-n2nnc(C(=O)O)c2-c2ccc(Br)cc2)cc1`: the pKi is 5.85.

Consider `NS(=O)(=O)c1ccc(-n2nnc(CO)c2-c2ccc(Br)cc2)cc1`, for which the pKi was 5.76.

For the molecule `NNC(=O)c1nnn(-c2ccc(S(N)(=O)=O)cc2)c1-c1ccc(F)cc1`, the pKi is 5.61.

`NNC(=O)c1nnn(-c2ccc(S(N)(=O)=O)cc2)c1-c1ccccn1` had a pKi of 5.54.

`NC(=O)c1nnn(-c2ccc(S(N)(=O)=O)cc2)c1-c1ccccn1` showed a pKi of 6.14.

Take `CCOC(=O)c1nnn(-c2ccc(S(N)(=O)=O)cc2)c1-c1ccc(F)cc1`: the pKi is 6.20.

Molecule `CCOC(=O)c1nnn(-c2ccc(S(N)(=O)=O)cc2)c1-c1ccc(C)cc1` showed a negative-log Ki (pKi) of 6.70.

The molecule `CCOC(=O)c1nnn(-c2ccc(S(N)(=O)=O)cc2)c1-c1ccc(Cl)cc1` had a pKi of 5.83.

As to `Cc1ccc(-c2c(C(N)=O)nnn2-c2ccc(S(N)(=O)=O)cc2)cc1`, the pKi is 7.14.

Consider `NS(=O)(=O)c1ccc(-n2nnc(C(=O)O)c2-c2ccc(Cl)cc2)cc1`, for which the pKi is 6.15.

On to `NS(=O)(=O)c1ccc(-n2nnc(CO)c2-c2cccs2)cc1`, for which the pKi is 7.15.

Molecule `NC(=O)c1nnn(-c2ccc(S(N)(=O)=O)cc2)c1-c1ccc(F)cc1` had a pKi of 6.97.

Consider `NS(=O)(=O)c1ccc(-n2nnc(C(=O)O)c2-c2ccccn2)cc1`, for which the pKi is 5.68.

As to `NNC(=O)c1nnn(-c2ccc(S(N)(=O)=O)cc2)c1-c1ccc(Cl)cc1`, the pKi is 6.04.

`Cc1ccc(-c2c(CO)nnn2-c2ccc(S(N)(=O)=O)cc2)cc1` showed a pKi of 5.63.

`NS(=O)(=O)c1ccc(-n2nnc(CO)c2-c2ccc(F)cc2)cc1` gave a pKi of 5.62.

`CCOC(=O)c1nnn(-c2ccc(S(N)(=O)=O)cc2)c1-c1ccc(Br)cc1` had a pKi of 6.64.

For the molecule `NS(=O)(=O)c1ccc(-n2nnc(C(=O)O)c2-c2ccc(F)cc2)cc1`, the pKi is 5.80.

In turn, `NS(=O)(=O)c1ccc(-n2nnc(CO)c2-c2ccc(Cl)cc2)cc1` gave a pKi of 5.92.

`NNC(=O)c1nnn(-c2ccc(S(N)(=O)=O)cc2)c1-c1cccs1` had a pKi of 5.55.

With `NC(=O)c1nnn(-c2ccc(S(N)(=O)=O)cc2)c1-c1ccc(Cl)cc1`, the pKi is 6.93.
